Laboratory results as given in ChEMBL document CHEMBL1131327, “Selective Pneumocystis carinii dihydrofolate reductase inhibitors: design, synthesis, and biological evaluation of new 2,4-diamino-5-substituted-furo[2,3-d]pyrimidines” (J Med Chem, 1998).

Columns and labels:
[1] = molecular target: T1, Dihydrofolate reductase (Pneumocystis carinii, UniProt P16184)
T1 sequence (P16184 whole entry): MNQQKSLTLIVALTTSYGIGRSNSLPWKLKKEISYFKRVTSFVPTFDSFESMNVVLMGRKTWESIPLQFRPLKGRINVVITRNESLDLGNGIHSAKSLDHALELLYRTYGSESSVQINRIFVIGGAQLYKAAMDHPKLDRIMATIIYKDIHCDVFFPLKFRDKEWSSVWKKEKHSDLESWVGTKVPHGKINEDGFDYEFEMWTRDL
Description: Inhibitory activity against dihydrofolate reductase from pneumocystis carinii

[2] = molecular target: T2, Dihydrofolate reductase (Rattus norvegicus, UniProt Q920D2)
T2 sequence (Q920D2 whole entry): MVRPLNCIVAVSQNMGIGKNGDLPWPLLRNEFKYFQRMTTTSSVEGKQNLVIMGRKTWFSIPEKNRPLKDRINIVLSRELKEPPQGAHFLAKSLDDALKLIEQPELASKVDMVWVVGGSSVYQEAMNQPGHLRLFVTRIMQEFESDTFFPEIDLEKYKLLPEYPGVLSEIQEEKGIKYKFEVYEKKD
Description: Inhibitory activity against dihydrofolate reductase from rat liver

[3] = molecular target: T3, Bifunctional dihydrofolate reductase-thymidylate synthase (Toxoplasma gondii, UniProt Q07422)
T3 sequence (Q07422 whole entry): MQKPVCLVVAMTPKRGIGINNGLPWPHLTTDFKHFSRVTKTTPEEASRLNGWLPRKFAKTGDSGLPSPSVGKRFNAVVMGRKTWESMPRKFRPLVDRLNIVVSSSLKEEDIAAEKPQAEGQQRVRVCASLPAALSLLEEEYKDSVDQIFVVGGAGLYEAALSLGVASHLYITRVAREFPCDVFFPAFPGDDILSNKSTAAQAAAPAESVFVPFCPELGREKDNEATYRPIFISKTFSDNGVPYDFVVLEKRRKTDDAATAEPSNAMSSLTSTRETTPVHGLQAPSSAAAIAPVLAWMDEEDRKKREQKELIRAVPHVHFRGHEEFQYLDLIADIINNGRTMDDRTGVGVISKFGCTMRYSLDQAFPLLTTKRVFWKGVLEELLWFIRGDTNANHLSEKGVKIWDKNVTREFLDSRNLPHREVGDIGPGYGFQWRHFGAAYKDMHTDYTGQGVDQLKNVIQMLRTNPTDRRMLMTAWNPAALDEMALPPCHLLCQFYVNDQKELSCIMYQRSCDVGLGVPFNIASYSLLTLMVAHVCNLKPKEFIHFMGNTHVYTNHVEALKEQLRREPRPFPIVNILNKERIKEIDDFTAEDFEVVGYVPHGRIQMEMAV
Description: Inhibitory activity against dihydrofolate reductase from Toxoplasma gondii

Row | SMILES | IC50 [1] [µM] | IC50 [2] [µM] | IC50 [3] [µM]
1 | CN(Cc1coc2nc(N)nc(N)c12)c1ccc2ccccc2c1 | 14.8 | 14.6 | 
2 | Nc1nc(N)c2c(CNc3ccc(Oc4ccccc4)cc3)coc2n1 |  |  | 32.4
3 | CN(Cc1coc2nc(N)nc(N)c12)c1cc(Cl)c(Cl)c(Cl)c1 | 284 |  | 
4 | Nc1nc(N)c2c(CNc3ccc4ccccc4c3)coc2n1 | 41 | 36.5 | 38
5 | COc1cccc(NCc2coc3nc(N)nc(N)c23)c1 | > 31.3 | > 31.3 | > 31.3
6 | Nc1nc(N)c2c(CNc3ccccc3-c3ccccc3)coc2n1 |  | 137 | 
7 | Nc1nc(N)c2c(CNc3ccccc3Oc3ccccc3)coc2n1 | > 12 | > 12 | > 12
8 | Nc1nc(N)c2c(CSc3ccccc3)coc2n1 | > 26 |  | > 26
9 | Nc1nc(N)c2c(CNc3cc(Cl)ccc3Cl)coc2n1 |  |  | > 47
10 | CN(Cc1coc2nc(N)nc(N)c12)c1ccc(Cl)c(Cl)c1 | 44.8 | > 27 | > 27
11 | COc1ccc(OC)c(N(C)Cc2coc3nc(N)nc(N)c23)c1 | > 27 | > 27 | > 27
